Test results reported in patent publication US10463594B2, “Cosmetic composition” (AJINOMOTO CO., INC., priority 2012, dated 2019).

How the values were obtained:
[1] = test system: hair; assay: Observation of hair damage (microscopic images ×400); conditions: 3 min after injection of sample
Protocol: In the test of the above-mentioned 1, the condition of the hair 3 min after injection of ion exchange water, protein-glutaminase solution, or 1% aqueous ammonia was observed.

[2] = test system: hair; assay: Measurement of swelling degree of hair; conditions: 100×(D1−D0)/D0 of hair diameter
Protocol: Hair was immobilized in a concave part of a glass slide for biochemical count having a depth of the concave part of 200 μm (manufactured by NIPPON Genetics Co, Ltd.), a cover glass was placed on the glass slide to cover the concave part, the diameter of the hair was measured 10-14 times, and the mean thereof was calculated (D0). Thereafter, a sample was injected from the clearance between the cover glass and the glass slide, and left standing for 3 min or 5 min. The diameter of the hair was measured 10-14 times, and the mean was calculated (D1).
As the sample, ion exchange water, phosphate buffer (pH 6.2), protein-glutaminase solution (6.2 mg/mL, pH 6.2) and 1% aqueous ammonia (pH 11.8) were used. The swelling degree was calculated from the measured diameters of the hair (D0 and D1) according to the following formula. swelling degree (%)=100×(D1−D0)/D0

[3] = test system: 3D cultured human skin model: TESTSKIN LSE-high; assay: Permeability of FITC-labeled Gly-Gly-Gly to artificial cultured skin; format: cell-based; conditions: protein-glutaminase solution 4 mg/ml, 100 μl, 37° C. 30 min before peptide; measured after 2, 5, 20 hr; versus phosphate buffer (−)
Protocol: Using glycylglycylglycine (hereinafter indicated as “Gly-Gly-Gly”) (manufactured by PEPTIDE INSTITUTE, INC.) as a peptide to be evaluated for skin permeability, the permeability of Gly-Gly-Gly to commercially available artificial cultured skin (3D cultured human skin model: TESTSKIN LSE-high, manufactured by Toyobo Co., Ltd.) was evaluated. Gly-Gly-Gly was labeled with fluorescein by using fluorescein isothiocyanate (FITC-I, manufactured by Chemical-Dojin Co., Ltd.) to enable highly sensitive detection.
The cultured skin is cultured on a polycarbonate membrane on the bottom of a transwell, and set on a 6-well assay plate. […] The permeability was evaluated by measuring the amount of FITC-labeled Gly-Gly-Gly that permeated the cultured skin to move into phosphate buffer (−).
First, a protein-glutaminase solution (4 mg/ml, 100 μl) was added to the top of the cultured skin and incubated at 37° C. for 30 min, after which a FITC-labeled Gly-Gly-Gly sample (100 μl) was added to the top of the cultured skin. After 2, 5, and 20 hr, the amount of FITC-labeled Gly-Gly-Gly that permeated the cultured skin and moved into phosphate buffer (−) was measured. […] The fluorescence intensity was measured under the conditions of exciting wavelength 492 nm and fluorescence wavelength 520 nm. The fluorescence intensity was measured using platereader SpectraMaxM2 (manufactured by Molecular Devices, LLC.).

[4] = test system: perm-treated hair; assay: Quantification of free ammonia produced by reaction of protein-glutaminase with perm-treated hair; format: biochemical, human; conditions: 37° C., 1 hr
Protocol: Hair of Japanese women in their 20's was perm-treated and used as an experiment sample. The perm treatment included 1) immersing the hair in first perm liquid at 33° C. for 15 min and rinsing the first liquid with tap water at 35-40° C., and 2) immersing the hair in second perm liquid at 33° C. for 15 min and sufficiently rinsing same with tap water at 35-40° C. The continuous operation of 1) and 2) was repeated 4 times, and the hair was washed with 15% sodium laureth sulfate (EMAL E27C; Kao Corporation) and sufficiently rinsed with tap water at 35-40° C. The hair was immersed in a buffer, and treated with occasional stirring at room temperature for 10 min. The hair was combed out, hung while avoiding overlapped hair, and dried in a thermo-hygrostat room (23° C., 40% R.H.).
Using an Ammonia test kit (manufactured by Wako Pure Chemical Industries, Ltd.), the amount of free ammonia produced by reaction of protein-glutaminase with the above-mentioned perm-treated hair was quantified.
The protein-glutaminase solution (2 ml) at a concentration shown in Table 4 was added to a bundle of the above-mentioned perm-treated hair (0.25 g), and the amount of ammonia in a sample after reaction at 37° C. for 1 hr was measured. The amount of ammonia produced was shown as a value after subtraction of the amount of ammonia produced without addition of protein-glutaminase (Comparative Example 4).

| Molecule | condition of the hair (hair damage) [1] | swelling degree (%) after 3 min ([2]; hair left standing in sample for 3 min) [%] | swelling degree (%) after 5 min ([2]; hair left standing in sample for 5 min) [%] | permeability of FITC-labeled Gly-Gly-Gly through cultured skin (fluorescence intensity) [3] | concentration of protein-glutaminase solution at which it reacted with perm-treated hair [4] |
| --- | --- | --- | --- | --- | --- |
| N [Comparative Example 3, 1% aqueous ammonia] | cuticles on the hair surface were lifted | 11.1 | 11.3 |  |  |
| protein-glutaminase: protein-glutaminase of Chryseobacterium proteolyticum, secretory-expressed in Corynebacterium glutamicum, activated by protease, purified, dissolved in phosphate buffer (protein, listed as Chryseobacterium proteolyticum) LASVIPDVATLNSLFNQIKNQSCGTSTASSPCITFRYPVDGCYARAHKMRQILMNNGYDCEKQFVYGNLKASTGTCCVAWSYHVAILVSYKNASGVTEKRIIDPSLFSSGPVTDTAWRNACVNTSCGSASVSSYANTAGNVYYRSPSNSYLYDNNLINTNCVLTKFSLLSGCSPSPAPDVSSCGF |  |  |  | improved permeability of peptide | not less than 0.01 mg/ml |
